# According to patent publication US11174245B2, “Benzimidazole compounds and derivatives as EGFR inhibitors” (Boehringer Ingelheim International GmbH, priority 2018, dated 2021):
# Target: EGFR (d746-750 T790M C797S) (Homo sapiens (Human), UniProt P00533, C797S/DEL746-750/T790M)
# Assay: Biochemical EGFR inhibition assay (TR-FRET, poly-GT substrate), EGFR d746-750 T790M C797S
# Details: 5 μM ATP
# Description: Biochemical EGFR Inhibition Assays
# Initially, the inhibitory effect of compounds according to the invention is measured in biochemical assays which measure the phosphorylation activity of EGFR enzyme forms on poly-GT substrate in the presence of different concentrations of ATP (5 μM and 100 μM final assay concentration).
# The following enzyme forms of EGFR are representative examples that can be used in these assays at the given concentrations:
# For the chosen highest assay concentration of 100 μM, 150 nL of compound solution is transferred from a 10 mM DMSO compound stock solution. A series of eleven fivefold dilutions per compound is transferred to the assay plate, compound dilutions are tested in duplicates. DMSO is added as backfill to a total volume of 150 nL. The assay runs on a fully automated robotic system.
# These biochemical EGFR enzyme form compound dose-response assays quantify the kinase activity via phosphorylation of a tagged poly-GT substrate. The results of the assay are provided as IC50 values.
# Chain of EGFR (d746-750 T790M C797S) (P00533 other isoform, or with tags, fused parts or gaps T790M/C797S/del 1-694/del 746-750 limits assumed): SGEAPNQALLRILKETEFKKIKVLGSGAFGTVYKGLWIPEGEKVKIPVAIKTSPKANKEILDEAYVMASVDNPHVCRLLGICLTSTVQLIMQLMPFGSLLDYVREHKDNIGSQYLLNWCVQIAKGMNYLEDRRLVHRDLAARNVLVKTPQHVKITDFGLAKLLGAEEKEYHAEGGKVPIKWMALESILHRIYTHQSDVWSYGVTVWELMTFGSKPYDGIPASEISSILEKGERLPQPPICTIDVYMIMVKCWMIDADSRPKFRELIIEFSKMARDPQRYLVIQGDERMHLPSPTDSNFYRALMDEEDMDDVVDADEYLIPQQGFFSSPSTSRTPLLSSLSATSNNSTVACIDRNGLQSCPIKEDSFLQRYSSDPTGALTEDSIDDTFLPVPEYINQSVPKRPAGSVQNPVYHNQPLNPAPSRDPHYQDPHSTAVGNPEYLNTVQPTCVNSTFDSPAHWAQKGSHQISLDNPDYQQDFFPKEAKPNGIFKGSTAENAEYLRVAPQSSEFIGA
row,SMILES,IC50
1,Cn1cc(-c2cc(C(=O)/N=c3\[nH]c4ccccc4n3[C@H]3CC[C@@H](O)CC3)cc(C#N)n2)cn1 [I-136],0.2 nM
2,Cc1cc(C(=O)/N=c2\[nH]c3ccccc3n2[C@H]2CC[C@@H](O)CC2)cc(-c2cnn(C)c2)n1 [I-143],0.4 nM
3,CC(=O)N1CCC(c2ccc3c(c2)[nH]/c(=N\C(=O)c2ccnc(-c4cnn(C)c4)c2)n3[C@H]2CC[C@@H](O)CC2)CC1 [I-219],0.1 nM
4,Cn1cc(-c2cc(C(=O)/N=c3\[nH]c4ccccc4n3C3CCC[S+]([O-])C3)ccn2)cn1 (centres unmarked) [I-220],2 nM
5,Cc1cc(C(=O)/N=c2\[nH]c3ccc(CN4CCOCC4)cc3n2C2CCCCC2)cc(-c2cnn(C)c2)n1 [I-221],0.4 nM
6,Cc1cc(C(=O)/N=c2\[nH]c3ccc(CN4CCN(C)CC4)cc3n2[C@H]2CC[C@@H](O)CC2)cc(-c2cnn(C)c2)n1 [I-222],0.2 nM
7,Cc1cc(C(=O)/N=c2\[nH]c3ccc(CN4CCOCC4)cc3n2[C@H]2CC[C@@H](O)CC2)cc(-c2cnn(C)c2)n1 [I-223],0.5 nM
8,Cc1cc(C(=O)/N=c2\[nH]c3ccc(CN4CCN(C)CC4)cc3n2C2CCCCC2)cc(-c2cnn(C)c2)n1 [I-224],0.2 nM
9,Cc1cc(C(=O)/N=c2\[nH]c3ccc(C4CCN(C)CC4)cc3n2[C@H]2CC[C@@H](O)CC2)cc(-c2cnn(C)c2)n1 [I-225],0.2 nM

# Same assay, conditions: 100 μM ATP
row,SMILES,IC50
1,CC(C)(O)Cn1/c(=N/C(=O)c2ccnc(-c3cnn4ccccc34)c2)[nH]c2ccccc21 [I-023],7.7 nM
2,Cc1c(-c2cc(C(=O)/N=c3\[nH]c4cc(N5CCN(C)CC5)ccc4n3CC(C)(C)O)ccn2)cnn1C [I-025],27.9 nM
3,CC(=O)N1CCC(c2ccc3c(c2)[nH]/c(=N\C(=O)c2ccnc(-c4cnn(C)c4C)c2)n3CC(C)(C)O)CC1 [I-026],4.4 nM
4,COc1ccncc1-c1cc(C(=O)/N=c2\[nH]c3cc(C4CCN(C)CC4)ccc3n2CC(C)(C)O)ccn1 [I-028],2.4 nM

# Target: EGFR wt (Homo sapiens (Human), UniProt P00533)
# Sequence (P00533 25-1210): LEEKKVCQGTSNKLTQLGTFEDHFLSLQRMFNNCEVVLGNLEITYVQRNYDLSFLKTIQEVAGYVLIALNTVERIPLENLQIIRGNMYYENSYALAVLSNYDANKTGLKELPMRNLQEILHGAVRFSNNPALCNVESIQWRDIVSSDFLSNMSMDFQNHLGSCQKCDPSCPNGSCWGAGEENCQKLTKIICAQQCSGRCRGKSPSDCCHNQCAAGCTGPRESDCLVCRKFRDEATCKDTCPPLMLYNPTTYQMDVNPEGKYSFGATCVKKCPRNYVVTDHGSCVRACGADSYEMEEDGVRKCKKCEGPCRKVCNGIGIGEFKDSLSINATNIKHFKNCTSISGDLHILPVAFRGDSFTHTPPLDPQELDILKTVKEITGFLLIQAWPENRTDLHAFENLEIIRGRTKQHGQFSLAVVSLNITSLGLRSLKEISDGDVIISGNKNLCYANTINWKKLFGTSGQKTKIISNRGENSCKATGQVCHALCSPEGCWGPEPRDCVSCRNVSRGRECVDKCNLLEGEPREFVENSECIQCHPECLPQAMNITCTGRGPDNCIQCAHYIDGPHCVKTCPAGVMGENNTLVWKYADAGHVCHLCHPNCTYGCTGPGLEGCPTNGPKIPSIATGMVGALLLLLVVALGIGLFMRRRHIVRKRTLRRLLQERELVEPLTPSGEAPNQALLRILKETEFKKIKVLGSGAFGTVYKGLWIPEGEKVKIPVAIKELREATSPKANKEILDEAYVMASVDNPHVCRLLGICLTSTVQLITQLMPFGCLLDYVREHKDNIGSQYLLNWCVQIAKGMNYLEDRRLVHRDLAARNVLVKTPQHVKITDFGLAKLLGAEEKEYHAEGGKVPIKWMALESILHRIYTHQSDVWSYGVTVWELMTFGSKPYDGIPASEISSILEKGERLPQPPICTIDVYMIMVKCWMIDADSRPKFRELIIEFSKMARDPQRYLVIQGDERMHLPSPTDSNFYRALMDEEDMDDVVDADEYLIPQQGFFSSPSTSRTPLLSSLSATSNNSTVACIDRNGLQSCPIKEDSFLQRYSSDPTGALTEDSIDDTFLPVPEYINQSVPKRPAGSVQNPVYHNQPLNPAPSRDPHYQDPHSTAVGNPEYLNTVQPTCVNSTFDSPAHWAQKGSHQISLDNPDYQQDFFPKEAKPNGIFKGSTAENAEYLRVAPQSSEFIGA
# Assay: Biochemical EGFR inhibition assay (TR-FRET, poly-GT substrate), EGFR wt
# Details: read-out: wt (5 μM ATP) IC50; 5 μM ATP
# Summary of the method: (§1)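 Phosphorylation of tagged poly-GT substrate by EGFR forms measured at 5 μM and 100 μM ATP (final). Top compound concentration 100 μM, eleven fivefold dilutions, in duplicate. Results given as IC50.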
row,SMILES,IC50
1,Cn1cc(-c2cc(C(=O)/N=c3\[nH]c4ccccc4n3[C@H]3CC[C@@H](O)CC3)cc(C#N)n2)cn1 [I-136],164 nM
2,Cc1cc(C(=O)/N=c2\[nH]c3ccccc3n2[C@H]2CC[C@@H](O)CC2)cc(-c2cnn(C)c2)n1 [I-143],2180 nM
3,CC(=O)N1CCC(c2ccc3c(c2)[nH]/c(=N\C(=O)c2ccnc(-c4cnn(C)c4)c2)n3[C@H]2CC[C@@H](O)CC2)CC1 [I-219],25.8 nM
4,Cn1cc(-c2cc(C(=O)/N=c3\[nH]c4ccccc4n3C3CCC[S+]([O-])C3)ccn2)cn1 (centres unmarked) [I-220],2860 nM
5,Cc1cc(C(=O)/N=c2\[nH]c3ccc(CN4CCOCC4)cc3n2C2CCCCC2)cc(-c2cnn(C)c2)n1 [I-221],2050 nM
6,Cc1cc(C(=O)/N=c2\[nH]c3ccc(CN4CCN(C)CC4)cc3n2[C@H]2CC[C@@H](O)CC2)cc(-c2cnn(C)c2)n1 [I-222],318 nM
7,Cc1cc(C(=O)/N=c2\[nH]c3ccc(CN4CCOCC4)cc3n2[C@H]2CC[C@@H](O)CC2)cc(-c2cnn(C)c2)n1 [I-223],2020 nM
8,Cc1cc(C(=O)/N=c2\[nH]c3ccc(CN4CCN(C)CC4)cc3n2C2CCCCC2)cc(-c2cnn(C)c2)n1 [I-224],267 nM
9,Cc1cc(C(=O)/N=c2\[nH]c3ccc(C4CCN(C)CC4)cc3n2[C@H]2CC[C@@H](O)CC2)cc(-c2cnn(C)c2)n1 [I-225],162 nM

# Same assay, conditions: read-out: wt (100 μM ATP) IC50; 100 μM ATP
row,SMILES,IC50
1,CC(C)(O)Cn1/c(=N/C(=O)c2ccnc(-c3cnn4ccccc34)c2)[nH]c2ccccc21 [I-023],> 100000 nM
2,Cc1c(-c2cc(C(=O)/N=c3\[nH]c4cc(N5CCN(C)CC5)ccc4n3CC(C)(C)O)ccn2)cnn1C [I-025],7890 nM
3,CC(=O)N1CCC(c2ccc3c(c2)[nH]/c(=N\C(=O)c2ccnc(-c4cnn(C)c4C)c2)n3CC(C)(C)O)CC1 [I-026],1150 nM
4,COc1ccncc1-c1cc(C(=O)/N=c2\[nH]c3cc(C4CCN(C)CC4)ccc3n2CC(C)(C)O)ccn1 [I-028],591 nM
5,Cn1cc(-c2cc(C(=O)/N=c3\[nH]c4ccccc4n3[C@H]3CC[C@@H](O)CC3)cc(C#N)n2)cn1 [I-136],> 100000 nM
6,Cc1cc(C(=O)/N=c2\[nH]c3ccccc3n2[C@H]2CC[C@@H](O)CC2)cc(-c2cnn(C)c2)n1 [I-143],> 100000 nM

# Target: EGFR (mutated) 695-1022, T790M, C797S, L858R (Homo sapiens (Human), UniProt P00533, C797S/L858R/T790M)
# Sequence (P00533 695-1022 T790M/C797S/L858R): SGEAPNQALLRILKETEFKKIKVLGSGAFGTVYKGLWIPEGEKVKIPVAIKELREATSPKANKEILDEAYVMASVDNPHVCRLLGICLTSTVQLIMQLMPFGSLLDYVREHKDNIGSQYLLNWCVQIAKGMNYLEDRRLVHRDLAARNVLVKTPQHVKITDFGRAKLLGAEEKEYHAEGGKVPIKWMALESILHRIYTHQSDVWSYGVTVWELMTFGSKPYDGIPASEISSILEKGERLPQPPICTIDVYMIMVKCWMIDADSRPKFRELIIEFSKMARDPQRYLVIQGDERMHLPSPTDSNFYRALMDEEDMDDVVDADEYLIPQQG
# Assay: Biochemical EGFR inhibition assay (TR-FRET, poly-GT substrate), EGFR T790M C797S L858R
# Details: read-out: LR_TM_CS (5 μM ATP) IC50; 5 μM ATP
# Summary of the method: as §1
row,SMILES,IC50
1,Cn1cc(-c2cc(C(=O)/N=c3\[nH]c4ccccc4n3[C@H]3CC[C@@H](O)CC3)cc(C#N)n2)cn1 [I-136],0.8 nM
2,Cc1cc(C(=O)/N=c2\[nH]c3ccccc3n2[C@H]2CC[C@@H](O)CC2)cc(-c2cnn(C)c2)n1 [I-143],1.9 nM
3,CC(=O)N1CCC(c2ccc3c(c2)[nH]/c(=N\C(=O)c2ccnc(-c4cnn(C)c4)c2)n3[C@H]2CC[C@@H](O)CC2)CC1 [I-219],0.4 nM
4,Cn1cc(-c2cc(C(=O)/N=c3\[nH]c4ccccc4n3C3CCC[S+]([O-])C3)ccn2)cn1 (centres unmarked) [I-220],32.7 nM
5,Cc1cc(C(=O)/N=c2\[nH]c3ccc(CN4CCOCC4)cc3n2C2CCCCC2)cc(-c2cnn(C)c2)n1 [I-221],2 nM
6,Cc1cc(C(=O)/N=c2\[nH]c3ccc(CN4CCN(C)CC4)cc3n2[C@H]2CC[C@@H](O)CC2)cc(-c2cnn(C)c2)n1 [I-222],0.6 nM
7,Cc1cc(C(=O)/N=c2\[nH]c3ccc(CN4CCOCC4)cc3n2[C@H]2CC[C@@H](O)CC2)cc(-c2cnn(C)c2)n1 [I-223],1.8 nM
8,Cc1cc(C(=O)/N=c2\[nH]c3ccc(CN4CCN(C)CC4)cc3n2C2CCCCC2)cc(-c2cnn(C)c2)n1 [I-224],0.5 nM
9,Cc1cc(C(=O)/N=c2\[nH]c3ccc(C4CCN(C)CC4)cc3n2[C@H]2CC[C@@H](O)CC2)cc(-c2cnn(C)c2)n1 [I-225],0.4 nM

# Same assay, conditions: read-out: LR_TM_CS (100 μM ATP) IC50; 100 μM ATP
row,SMILES,IC50
1,CC(C)(O)Cn1/c(=N/C(=O)c2ccnc(-c3cnn4ccccc34)c2)[nH]c2ccccc21 [I-023],78.2 nM
2,Cc1c(-c2cc(C(=O)/N=c3\[nH]c4cc(N5CCN(C)CC5)ccc4n3CC(C)(C)O)ccn2)cnn1C [I-025],113 nM
3,CC(=O)N1CCC(c2ccc3c(c2)[nH]/c(=N\C(=O)c2ccnc(-c4cnn(C)c4C)c2)n3CC(C)(C)O)CC1 [I-026],34.5 nM
4,COc1ccncc1-c1cc(C(=O)/N=c2\[nH]c3cc(C4CCN(C)CC4)ccc3n2CC(C)(C)O)ccn1 [I-028],4.2 nM
5,Cn1cc(-c2cc(C(=O)/N=c3\[nH]c4ccccc4n3[C@H]3CC[C@@H](O)CC3)cc(C#N)n2)cn1 [I-136],31.6 nM
6,Cc1cc(C(=O)/N=c2\[nH]c3ccccc3n2[C@H]2CC[C@@H](O)CC2)cc(-c2cnn(C)c2)n1 [I-143],104 nM

# Target: EGFR del19 T790M C797S protein in Ba/F3 cells (Homo sapiens, UniProt P00533, C797S/DEL746-750/T790M)
# Sequence (P00533 with tags, fused parts or gaps C797S/DEL746-750/T790M limits assumed): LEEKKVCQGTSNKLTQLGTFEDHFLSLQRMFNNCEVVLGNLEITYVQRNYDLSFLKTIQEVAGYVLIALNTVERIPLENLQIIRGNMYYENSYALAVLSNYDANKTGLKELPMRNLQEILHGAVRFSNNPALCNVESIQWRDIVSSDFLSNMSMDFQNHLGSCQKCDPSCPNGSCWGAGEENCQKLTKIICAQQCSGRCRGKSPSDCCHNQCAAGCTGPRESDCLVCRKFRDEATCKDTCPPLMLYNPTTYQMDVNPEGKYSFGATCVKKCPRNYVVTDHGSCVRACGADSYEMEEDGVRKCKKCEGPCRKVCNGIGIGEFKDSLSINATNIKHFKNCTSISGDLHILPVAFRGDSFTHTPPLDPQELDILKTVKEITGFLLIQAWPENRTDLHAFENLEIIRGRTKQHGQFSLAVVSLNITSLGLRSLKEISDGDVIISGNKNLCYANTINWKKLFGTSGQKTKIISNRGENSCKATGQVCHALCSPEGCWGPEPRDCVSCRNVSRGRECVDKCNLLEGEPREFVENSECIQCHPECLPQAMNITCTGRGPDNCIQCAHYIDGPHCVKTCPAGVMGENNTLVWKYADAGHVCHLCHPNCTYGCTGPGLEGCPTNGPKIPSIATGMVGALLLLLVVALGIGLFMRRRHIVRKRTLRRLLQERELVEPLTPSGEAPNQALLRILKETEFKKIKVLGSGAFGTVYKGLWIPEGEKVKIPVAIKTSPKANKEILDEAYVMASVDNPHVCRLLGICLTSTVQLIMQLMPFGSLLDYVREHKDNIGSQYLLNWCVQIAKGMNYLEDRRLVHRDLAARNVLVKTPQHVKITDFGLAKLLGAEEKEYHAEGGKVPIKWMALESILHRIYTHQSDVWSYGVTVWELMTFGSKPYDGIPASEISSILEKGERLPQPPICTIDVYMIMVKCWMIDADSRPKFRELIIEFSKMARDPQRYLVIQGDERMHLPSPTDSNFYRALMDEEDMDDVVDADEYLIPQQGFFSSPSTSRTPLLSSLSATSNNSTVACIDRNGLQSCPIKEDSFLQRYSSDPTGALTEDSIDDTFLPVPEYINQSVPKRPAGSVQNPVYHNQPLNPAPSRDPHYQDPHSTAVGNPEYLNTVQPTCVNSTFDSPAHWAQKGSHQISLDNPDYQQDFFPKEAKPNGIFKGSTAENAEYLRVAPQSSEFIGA
# Assay: pEGFR assay (AlphaScreen Surefire, EGFR Tyr1068 phosphorylation)
# Assay type: cell-based
# Details: not given
# Summary of the method: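 Transduced Ba/F3 cells, puromycin-selected and grown IL-3 independent, were treated with compound at 60.000 cells/well for 4 h at 37° C. Lysis followed for 20 min at room temperature, and Tyr1068 phospho-EGFR in lysate was detected after 2 h dark incubation. Results are IC50 values.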
row,SMILES,IC50
1,CC(C)(O)Cn1/c(=N/C(=O)c2ccnc(-c3cnn4ccccc34)c2)[nH]c2ccccc21 [I-023],7 nM
2,Cc1c(-c2cc(C(=O)/N=c3\[nH]c4cc(N5CCN(C)CC5)ccc4n3CC(C)(C)O)ccn2)cnn1C [I-025],28 nM
3,CC(=O)N1CCC(c2ccc3c(c2)[nH]/c(=N\C(=O)c2ccnc(-c4cnn(C)c4C)c2)n3CC(C)(C)O)CC1 [I-026],7 nM
4,COc1ccncc1-c1cc(C(=O)/N=c2\[nH]c3cc(C4CCN(C)CC4)ccc3n2CC(C)(C)O)ccn1 [I-028],1 nM
5,Cn1cc(-c2cc(C(=O)/N=c3\[nH]c4ccccc4n3[C@H]3CC[C@@H](O)CC3)cc(C#N)n2)cn1 [I-136],2 nM
6,Cc1cc(C(=O)/N=c2\[nH]c3ccccc3n2[C@H]2CC[C@@H](O)CC2)cc(-c2cnn(C)c2)n1 [I-143],3 nM
7,CC(=O)N1CCC(c2ccc3c(c2)[nH]/c(=N\C(=O)c2ccnc(-c4cnn(C)c4)c2)n3[C@H]2CC[C@@H](O)CC2)CC1 [I-219],2 nM
8,Cn1cc(-c2cc(C(=O)/N=c3\[nH]c4ccccc4n3C3CCC[S+]([O-])C3)ccn2)cn1 (centres unmarked) [I-220],59 nM
9,Cc1cc(C(=O)/N=c2\[nH]c3ccc(CN4CCOCC4)cc3n2C2CCCCC2)cc(-c2cnn(C)c2)n1 [I-221],5 nM
10,Cc1cc(C(=O)/N=c2\[nH]c3ccc(CN4CCN(C)CC4)cc3n2[C@H]2CC[C@@H](O)CC2)cc(-c2cnn(C)c2)n1 [I-222],5 nM
11,Cc1cc(C(=O)/N=c2\[nH]c3ccc(CN4CCOCC4)cc3n2[C@H]2CC[C@@H](O)CC2)cc(-c2cnn(C)c2)n1 [I-223],4 nM
12,Cc1cc(C(=O)/N=c2\[nH]c3ccc(CN4CCN(C)CC4)cc3n2C2CCCCC2)cc(-c2cnn(C)c2)n1 [I-224],3 nM
13,Cc1cc(C(=O)/N=c2\[nH]c3ccc(C4CCN(C)CC4)cc3n2[C@H]2CC[C@@H](O)CC2)cc(-c2cnn(C)c2)n1 [I-225],2 nM
